Measurements: patent publication US6407237B1, “Crystal forms of 9-substituted hypoxanthine derivatives” (NeoTherapeutics, Inc., priority 2000, dated 2002)
Entries after “also recorded” stand apart in the source; their conditions may differ. One block for each molecule: values may come before it.

Key:
[1] = Hygroscopicity of the crystal structure; format: physicochemical
[2] = Hydration and dehydration (interconversion) studies of crystal structures, checked by X-ray powder pattern; format: physicochemical; conditions: for crystal structure after incubation in humid chamber (H2O vapor) at 25° C. / crystal structure after incubation in humid chamber (H2O vapor) at 70° C.: 48 h
Protocol: X-ray powder patterns were measured with a β-Generator Philips PW 1120/90 equipped with a CuKα Guinier-de Wolff Camera No. 11 (Enraf-Nonius).
Starting from different crystal structures, hydration and dehydration studies were performed (FIG. 1, Table 2). The crystal structure designated Type I (lot NTA-107-B) is obtained by equilibration of Type II (lot NTA-107-A) with water vapor in a humid chamber, whereas Type III was generated by dehydration of Type I in a vacuum drying oven at elevated temperature (Tables 1 and 2). The X-ray powder patterns of the Type I and II crystal structures are not sensitive to small changes in the water content and appear uniform from batch to batch.
The well-resolved powder diagrams of these two forms indicate well ordered crystal lattice structures (FIG. 3). […] The manufacturing process leads to a water-soluble (5% w/v) crystalline product of the monopotassium salt of N-4-carboxyphenyl-3-(6-oxohydropurin-9-yl) propanamide monohydrate Type I (active pharmaceutical ingredient). N-4-carboxyphenyl-3-(6-oxohydropurin-9-yl) propanamide monopotassium salt exists, as known so far, in three different crystal structures (Types I-III) depending upon the water content.

[3] = format: physicochemical
Text: The occurrence of polymorphic forms can be examined by various physico-chemical investigation techniques. The solubility measured under defined conditions can provide information regarding the occurrence of different crystal structures. However, the preferred technique for the investigation of the polymorphism of N-4-carboxyphenyl-3-(6-oxohydropurin-9-yl) propanamide monopotassium salt is the analysis of the X-ray diffraction powder diagrams, which allows the distinct crystal structures to be clearly distinguished by their characteristic powder patterns. The powder pattern, position, intensity and sharpness of the bands are dependent upon the crystal structure and the fine arrangement of the atoms in the crystal lattice, which in turn are both influenced by the content of crystal water. For this study, material from different batches of N-4-carboxyphenyl-3-(6-oxohydropurin-9-yl) propanamide monopotassium salt was used, either in the original or in a dry or wet state (Table 1).
In aqueous solutions prepared with material which was synthesized by the route designated “direct crystallization” a fine microcrystalline precipitate of the N-4-carboxyphenyl-3-(6-oxohydropurin-9-yl) propanamide free acid was formed after 2-3 min. Although the assay of K is 1.0 equivalent and although direct crystallized K-salt is isolated at equal or slightly higher pH (H 8.7) than K-salt synthesized from N-4-carboxyphenyl-3-(6-oxohydropurin-9-yl) propanamide free acid (pH 8.5), only the latter is completely soluble in water. […] The free acid precipitates and generates the di-K salt until its concentration is high enough to keep the precipitation and dissolution of the free acid at equilibrium. The solubility of N-4-carboxyphenyl-3-(6-oxohydropurin-9-yl) propanamide Type II (lot Am 960/a) in aqueous solution was measured as a function of temperature (FIG. 2). In the solubility curve a plateau is reached at 70° C. (17% w/w).

hygroscopicity [1]: only slightly hygroscopic
crystal structure after strong drying in vacuum oven ([2]; 140° C., 5 mbar, monopotassium salt monohydrate): Type III was obtained
SMILES: O.O=C(CCn1cnc2c(=O)[nH]cnc21)Nc1ccc(C(=O)[O-])cc1.[K+] [Type I, N-4-carboxyphenyl-3-(6-oxohydropurin-9-yl) propanamide monopotassium salt monohydrate]
crystal structure after incubation in humid chamber (H2O vapor) at 25° C. ([2]; monopotassium salt monohydrate): stable; also recorded: remains unchanged; also recorded: Type I
crystal structure after incubation in humid chamber (H2O vapor) at 70° C. ([2]; monopotassium salt monohydrate): stable; also recorded: remains unchanged; also recorded: Type I

solubility in aqueous solution as a function of temperature, plateau of solubility curve [3]: 17 % w/w
solubility in water [3]: about 10 % (w/v)
crystal structure after incubation in humid chamber (H2O vapor) at 25° C. ([2]; monopotassium salt): Type II
SMILES: O=C(CCn1cnc2c(=O)[nH]cnc21)Nc1ccc(C(=O)[O-])cc1.[K+] [Type II, N-4-carboxyphenyl-3-(6-oxohydropurin-9-yl) propanamide monopotassium salt]
crystal structure after incubation in humid chamber (H2O vapor) at 70° C. ([2]; monopotassium salt): interconversion of Type II into Type I crystal structure

crystal structure after incubation in humid chamber (H2O vapor) at 25° C. ([2]; monopotassium salt): turns completely into Type I
SMILES: O=C(CCn1cnc2c(=O)[nH]cnc21)Nc1ccc(C(=O)[O-])cc1.[K+] [Type III, N-4-carboxyphenyl-3-(6-oxohydropurin-9-yl) propanamide monopotassium salt]

solubility of the free acid in water [3]: extreme low solubility
SMILES: O=C(CCn1cnc2c(=O)[nH]cnc21)Nc1ccc(C(=O)O)cc1 [free acid, N-4-carboxyphenyl-3-(6-oxohydropurin-9-yl) propanamide]
